Read-outs that look alike come from different tables or passages of the source.
How the values were obtained:
WEE1 = target: T1, WEE1 (Homo sapiens, UniProt P30291+Q96SW2); assay: Western-blot assay of substrate protein degradation in hPBMCs, WEE1; type: cell-based; conditions: 24 hours of compound treatment, compounds tested at 50 nM and 500 nM (concentration of the table not stated)
T1 construct: endogenous in cells; host or cells: hPBMCs (Milecell Biotechnologies)

IKZF1 = target: T2, IKZF1 (Homo sapiens, UniProt Q13422+Q96SW2); assay: Western-blot assay of substrate protein degradation in hPBMCs, IKZF1; type: cell-based; conditions: 24 hours of compound treatment, compounds tested at 50 nM and 500 nM (concentration of the table not stated)
T2 construct: endogenous in cells; host or cells: hPBMCs (Milecell Biotechnologies)

IKZF2 = target: T3, IKZF2 (Homo sapiens, UniProt Q96SW2+Q9UKS7); assay: Western-blot assay of substrate protein degradation in hPBMCs, IKZF2; type: cell-based; conditions: 24 hours of compound treatment, compounds tested at 50 nM and 500 nM (concentration of the table not stated)
T3 construct: endogenous in cells; host or cells: hPBMCs (Milecell Biotechnologies)

IKZF3 = target: T4, IKZF3 (Homo sapiens, UniProt Q96SW2+Q9UKT9); assay: Western-blot assay of substrate protein degradation in hPBMCs, IKZF3; type: cell-based; conditions: 24 hours of compound treatment, compounds tested at 50 nM and 500 nM (concentration of the table not stated)
T4 construct: endogenous in cells; host or cells: hPBMCs (Milecell Biotechnologies)

CK1α = target: T5, CK1α (Homo sapiens, UniProt P48729+Q96SW2); assay: Western-blot assay of substrate protein degradation in hPBMCs, CK1α; type: cell-based; conditions: 24 hours of compound treatment, compounds tested at 50 nM and 500 nM (concentration of the table not stated)
T5 construct: endogenous in cells; host or cells: hPBMCs (Milecell Biotechnologies)

GSPT1 = target: T6, GSPT1 (Homo sapiens, UniProt P15170+Q96SW2); assay: Western-blot assay of substrate protein degradation in hPBMCs, GSPT1; type: cell-based; conditions: 24 hours of compound treatment, compounds tested at 50 nM and 500 nM (concentration of the table not stated)
T6 construct: endogenous in cells; host or cells: hPBMCs (Milecell Biotechnologies)

[1] = target: T7, human Cereblon WT GST-tagged protein (Homo sapiens, UniProt Q96SW2); assay: CRBN-binding affinity by HTRF (CEREBLON BINDING kit)
T7 construct: purchased CISBIO 64BDCRBNPEH

SR = assay: Tumor cell proliferation inhibition (CellTiter-Meiluncell Luminescent Cell Viability Assay), SR; conditions: Homo sapiens, 96 h, read-out: inhibitory activity (IC50, nM) against tumor cells proliferation, SR
Experimental: (§1) The tumor cells used herein were cultured in a cell culture medium listed in table 2 at 37°C in an incubator with 5% CO2. Prior to experimentation, all cell lines used were correctly identified by STR profiling, and tested negative for mycoplasma contamination using a mycoplasma detection kit through routine screenings.
On the following day, the test compounds of the present disclosure were subjected to serial dilution. […] Subsequently, 0.5 µL of the test compound dilution was transferred into the 96-well plate containing the cells, with each well containing 100 µL of cell culture medium. […] Into the 96-well plate, the diluted test compounds and corresponding detection reagents were added, resulting in final test compound concentrations of 500 nM and 10 nM, respectively.
(§2) After the cells were treated with the compounds of the present disclosure for a specified period (the treatment durations were shown in Table 3), the cell viability assay reagent was added to the culture medium according to the kit's instructions to determine cell viability. […] All controls were treated using the same procedure as the compounds of the present disclosure. The growth inhibition curves for the compounds of the present disclosure were plotted using Prism GraphPad software, and the IC50 values were calculated therefrom.

Vcap = assay: Tumor cell proliferation inhibition (CellTiter-Meiluncell Luminescent Cell Viability Assay), Vcap; conditions: Homo sapiens, 96 h, read-out: inhibitory activity (IC50, nM) against tumor cells proliferation, Vcap
MM.1R = assay: Tumor cell proliferation inhibition (CellTiter-Meiluncell Luminescent Cell Viability Assay), MM.1R; conditions: Homo sapiens, 96 h, read-out: inhibitory activity (IC50, nM) against tumor cells proliferation, MM.1R
SW620 = assay: Tumor cell proliferation inhibition (CellTiter-Meiluncell Luminescent Cell Viability Assay), SW620; conditions: Homo sapiens, SW-620, 96 h, read-out: inhibitory activity (IC50, nM) against tumor cells proliferation, SW620
Experimental: as §1
(§3) On the following day, the test compounds of the present disclosure were subjected to serial dilution. […] Subsequently, 0.5 µL of the test compound dilution was transferred into the 96-well plate containing the cells, with each well containing 100 µL of cell culture medium. […] Into the 96-well plate, the diluted test compounds and corresponding detection reagents were added, resulting in final test compound concentrations of 500 nM and 10 nM, respectively. The experimental procedure is described below using the diluted 2 µM test compound as an example.
as §2

Jurkat = assay: Tumor cell proliferation inhibition (CellTiter-Meiluncell Luminescent Cell Viability Assay), Jurkat; conditions: Homo sapiens, 96 h, read-out: inhibitory activity (IC50, nM) against tumor cells proliferation, Jurkat
CAL-62 = assay: Tumor cell proliferation inhibition (CellTiter-Meiluncell Luminescent Cell Viability Assay), CAL-62; conditions: Homo sapiens, CAL-62, 96 h, read-out: inhibitory activity (IC50, nM) against tumor cells proliferation, CAL-62
[2] = tested on: Human acute T lymphocytic leukemia cells (Molt-4); assay: Tumor cell proliferation inhibition (CellTiter-Meiluncell Luminescent Cell Viability Assay), Molt-4; conditions: MOLT-4, 96 h, read-out: inhibitory activity (IC50, nM) against tumor cells proliferation, Molt 4
MGC803 = assay: Tumor cell proliferation inhibition (CellTiter-Meiluncell Luminescent Cell Viability Assay), MGC803; conditions: Homo sapiens, MGC-803, 96 h, read-out: inhibitory activity (IC50, nM) against tumor cells proliferation, MGC803
CCRF-CEM = assay: Tumor cell proliferation inhibition (CellTiter-Meiluncell Luminescent Cell Viability Assay), CCRF-CEM; conditions: Homo sapiens, 96 h, read-out: inhibitory activity (IC50, nM) against tumor cells proliferation, CCRF-CEM
NCI-H1975 = assay: Tumor cell proliferation inhibition (CellTiter-Meiluncell Luminescent Cell Viability Assay), NCI-H1975; conditions: Homo sapiens, NCI-H1975, 96 h, read-out: inhibitory activity (IC50, nM) against tumor cells proliferation, H1975
Experimental: as §1, §3, §2

[3] = tested on: Human breast cancer cells (MDA-MB-231); assay: Tumor cell proliferation inhibition (CellTiter-Meiluncell Luminescent Cell Viability Assay), MDA-MB-231; conditions: MDA-MB-231, 96 h, read-out: inhibitory activity (IC50, nM) against tumor cells proliferation, MDA-MB-231
TMD8 = assay: Tumor cell proliferation inhibition (CellTiter-Meiluncell Luminescent Cell Viability Assay), TMD8; conditions: Homo sapiens, TMD8, 96 h, read-out: inhibitory activity (IC50, nM) against tumor cells proliferation, TMD8
[4] = HTRF inhibitory activity, CEREBLON BINDING kit; read-out: HTRF IC50

T4 sequence (Q9UKT9 whole entry): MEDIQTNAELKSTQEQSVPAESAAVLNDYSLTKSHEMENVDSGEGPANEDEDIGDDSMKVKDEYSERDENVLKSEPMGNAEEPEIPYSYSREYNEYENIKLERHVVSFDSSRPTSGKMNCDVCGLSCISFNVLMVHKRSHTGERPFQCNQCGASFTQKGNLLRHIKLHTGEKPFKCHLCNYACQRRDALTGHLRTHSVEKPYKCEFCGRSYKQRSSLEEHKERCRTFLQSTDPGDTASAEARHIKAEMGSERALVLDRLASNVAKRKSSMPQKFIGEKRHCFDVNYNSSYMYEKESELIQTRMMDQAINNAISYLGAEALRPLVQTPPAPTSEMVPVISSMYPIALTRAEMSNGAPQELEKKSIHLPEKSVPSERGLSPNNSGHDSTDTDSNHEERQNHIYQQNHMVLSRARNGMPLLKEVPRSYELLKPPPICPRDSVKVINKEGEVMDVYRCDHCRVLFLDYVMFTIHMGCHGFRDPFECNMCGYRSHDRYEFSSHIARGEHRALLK
T4 sequence (Q96SW2 whole entry): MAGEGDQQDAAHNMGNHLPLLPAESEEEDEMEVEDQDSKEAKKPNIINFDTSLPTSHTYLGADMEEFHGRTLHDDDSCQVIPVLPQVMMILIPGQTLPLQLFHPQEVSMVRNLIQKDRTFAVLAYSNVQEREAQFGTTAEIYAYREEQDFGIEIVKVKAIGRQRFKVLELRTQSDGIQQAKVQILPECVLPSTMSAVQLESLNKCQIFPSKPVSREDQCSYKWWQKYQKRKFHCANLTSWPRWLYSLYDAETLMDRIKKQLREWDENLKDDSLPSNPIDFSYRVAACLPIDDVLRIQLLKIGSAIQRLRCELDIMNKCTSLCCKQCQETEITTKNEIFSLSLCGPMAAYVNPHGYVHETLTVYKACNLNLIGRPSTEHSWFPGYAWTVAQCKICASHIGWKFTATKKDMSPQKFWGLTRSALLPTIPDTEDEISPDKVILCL
T4 sequence (Q16531 whole entry partner): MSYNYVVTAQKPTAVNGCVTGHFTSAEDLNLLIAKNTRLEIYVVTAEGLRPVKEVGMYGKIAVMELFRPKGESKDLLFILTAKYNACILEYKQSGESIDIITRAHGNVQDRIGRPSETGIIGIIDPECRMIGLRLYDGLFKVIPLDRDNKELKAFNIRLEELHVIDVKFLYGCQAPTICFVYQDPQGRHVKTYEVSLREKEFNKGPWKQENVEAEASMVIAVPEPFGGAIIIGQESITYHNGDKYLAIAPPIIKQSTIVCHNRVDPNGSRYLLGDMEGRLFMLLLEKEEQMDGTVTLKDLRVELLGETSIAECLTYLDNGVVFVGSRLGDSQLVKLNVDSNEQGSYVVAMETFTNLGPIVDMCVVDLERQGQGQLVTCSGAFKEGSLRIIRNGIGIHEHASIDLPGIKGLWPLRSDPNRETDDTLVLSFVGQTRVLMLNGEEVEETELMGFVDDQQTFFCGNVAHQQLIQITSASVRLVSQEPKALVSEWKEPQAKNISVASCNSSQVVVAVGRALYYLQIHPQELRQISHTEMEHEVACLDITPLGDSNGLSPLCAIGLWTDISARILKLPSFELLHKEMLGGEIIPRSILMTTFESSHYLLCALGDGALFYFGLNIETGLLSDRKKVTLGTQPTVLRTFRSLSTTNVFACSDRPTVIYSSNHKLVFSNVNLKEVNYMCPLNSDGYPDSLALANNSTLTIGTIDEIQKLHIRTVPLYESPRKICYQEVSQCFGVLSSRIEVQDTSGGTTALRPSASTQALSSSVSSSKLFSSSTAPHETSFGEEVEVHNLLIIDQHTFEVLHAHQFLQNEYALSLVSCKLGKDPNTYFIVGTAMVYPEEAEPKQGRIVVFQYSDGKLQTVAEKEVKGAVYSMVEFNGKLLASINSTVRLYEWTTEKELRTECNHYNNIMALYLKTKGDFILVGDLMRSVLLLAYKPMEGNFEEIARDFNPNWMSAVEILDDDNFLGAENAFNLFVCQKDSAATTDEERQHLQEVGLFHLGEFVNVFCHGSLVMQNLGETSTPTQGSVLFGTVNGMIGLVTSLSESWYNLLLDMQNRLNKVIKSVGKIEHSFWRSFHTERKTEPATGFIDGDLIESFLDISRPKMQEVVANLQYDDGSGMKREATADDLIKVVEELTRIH
T7 sequence (Q96SW2 whole entry): as the sequence (Q96SW2 whole entry) above
T3 sequence (Q9UKS7 whole entry): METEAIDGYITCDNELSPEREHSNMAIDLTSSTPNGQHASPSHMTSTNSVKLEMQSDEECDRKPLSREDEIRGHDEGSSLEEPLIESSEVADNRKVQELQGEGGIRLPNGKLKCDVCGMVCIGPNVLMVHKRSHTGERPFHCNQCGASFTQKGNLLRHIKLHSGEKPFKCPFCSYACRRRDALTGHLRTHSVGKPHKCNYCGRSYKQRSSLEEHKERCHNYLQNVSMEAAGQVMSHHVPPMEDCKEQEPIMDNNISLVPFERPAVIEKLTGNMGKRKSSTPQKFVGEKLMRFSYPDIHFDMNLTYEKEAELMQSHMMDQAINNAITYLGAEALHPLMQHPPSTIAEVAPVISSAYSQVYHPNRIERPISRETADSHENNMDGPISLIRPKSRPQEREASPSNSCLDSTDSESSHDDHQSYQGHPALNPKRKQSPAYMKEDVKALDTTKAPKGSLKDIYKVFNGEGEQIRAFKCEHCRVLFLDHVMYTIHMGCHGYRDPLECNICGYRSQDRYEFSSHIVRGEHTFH
T3 sequence (Q96SW2 whole entry): as the sequence (Q96SW2 whole entry) above
T3 sequence (Q16531 whole entry partner): as the sequence (Q16531 whole entry partner) above
T5 sequence (P48729 whole entry): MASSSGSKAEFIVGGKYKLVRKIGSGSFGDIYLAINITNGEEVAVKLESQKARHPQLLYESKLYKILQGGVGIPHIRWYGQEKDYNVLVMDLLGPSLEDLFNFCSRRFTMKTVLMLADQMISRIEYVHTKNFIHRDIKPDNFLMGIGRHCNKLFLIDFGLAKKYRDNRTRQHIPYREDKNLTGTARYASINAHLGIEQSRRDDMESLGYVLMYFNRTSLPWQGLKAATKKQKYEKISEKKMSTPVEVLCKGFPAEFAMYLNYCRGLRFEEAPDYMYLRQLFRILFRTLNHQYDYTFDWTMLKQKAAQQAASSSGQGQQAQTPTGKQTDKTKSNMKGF
T5 sequence (Q96SW2 whole entry): as the sequence (Q96SW2 whole entry) above
T5 sequence (Q16531 whole entry partner): as the sequence (Q16531 whole entry partner) above
T2 sequence (Q13422 whole entry): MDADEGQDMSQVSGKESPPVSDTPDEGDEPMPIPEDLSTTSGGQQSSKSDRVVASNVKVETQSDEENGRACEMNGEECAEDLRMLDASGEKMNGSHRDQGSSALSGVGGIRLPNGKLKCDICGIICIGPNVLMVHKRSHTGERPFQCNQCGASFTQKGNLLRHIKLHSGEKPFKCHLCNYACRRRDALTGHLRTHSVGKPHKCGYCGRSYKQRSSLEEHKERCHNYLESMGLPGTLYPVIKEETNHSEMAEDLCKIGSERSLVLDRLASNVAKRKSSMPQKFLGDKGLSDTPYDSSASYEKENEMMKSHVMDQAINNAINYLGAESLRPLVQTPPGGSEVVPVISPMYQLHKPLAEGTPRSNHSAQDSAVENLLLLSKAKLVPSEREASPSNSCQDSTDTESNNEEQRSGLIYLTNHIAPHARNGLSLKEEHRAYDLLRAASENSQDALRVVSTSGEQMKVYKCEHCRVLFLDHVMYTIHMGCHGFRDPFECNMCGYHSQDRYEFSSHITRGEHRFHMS
T2 sequence (Q96SW2 whole entry): as the sequence (Q96SW2 whole entry) above
T2 sequence (Q16531 whole entry partner): as the sequence (Q16531 whole entry partner) above
T1 sequence (P30291 whole entry): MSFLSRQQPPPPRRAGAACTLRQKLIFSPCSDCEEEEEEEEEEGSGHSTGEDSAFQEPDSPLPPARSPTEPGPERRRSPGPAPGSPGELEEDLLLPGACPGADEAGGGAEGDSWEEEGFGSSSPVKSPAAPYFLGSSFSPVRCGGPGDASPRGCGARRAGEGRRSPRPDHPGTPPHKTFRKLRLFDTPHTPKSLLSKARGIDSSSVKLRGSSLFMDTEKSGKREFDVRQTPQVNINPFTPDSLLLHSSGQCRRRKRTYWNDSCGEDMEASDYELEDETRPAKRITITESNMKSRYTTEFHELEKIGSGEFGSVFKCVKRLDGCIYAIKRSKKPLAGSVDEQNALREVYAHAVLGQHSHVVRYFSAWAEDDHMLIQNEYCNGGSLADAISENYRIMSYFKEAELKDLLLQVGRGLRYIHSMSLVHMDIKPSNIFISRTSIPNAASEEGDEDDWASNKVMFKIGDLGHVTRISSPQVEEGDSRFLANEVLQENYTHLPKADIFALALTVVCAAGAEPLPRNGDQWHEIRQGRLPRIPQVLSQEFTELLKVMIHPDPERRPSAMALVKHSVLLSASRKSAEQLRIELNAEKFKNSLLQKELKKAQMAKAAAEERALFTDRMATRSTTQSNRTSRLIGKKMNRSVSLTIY
T1 sequence (Q96SW2 whole entry): as the sequence (Q96SW2 whole entry) above
T1 sequence (Q16531 whole entry partner): as the sequence (Q16531 whole entry partner) above

SMILES | Weel substrate protein remaining % (WEE1) | IKZF 1 substrate protein remaining % (IKZF1) | IKZF2 substrate protein remaining % (IKZF2) | IKZF3 substrate protein remaining % (IKZF3) | CK1a substrate protein remaining % (CK1α) | GSPT1 substrate protein remaining % (GSPT1) | IC50 ([1]; read-out: HTRF IC50; HTRF inhibitory activity, CEREBLON BINDING kit) [nM] | IC50 (SR) [nM] | IC50 (Vcap) [nM] | IC50 (MM.1R) [nM] | IC50 (SW620) [nM] | IC50 (Jurkat) [nM] | IC50 (CAL-62) [nM] | IC50 [2] [nM] | IC50 (MGC803) [nM] | IC50 (CCRF-CEM) [nM] | IC50 (NCI-H1975) [nM] | IC50 [3] [nM] | IC50 [1, 4] [nM] | IC50 (TMD8) [nM]
O=C1CCC(N2Cc3cc(CN4CCN(c5ccc(Br)cc5)CC4)ccc3C2=O)C(=O)N1 (stereo not shown) | B (80%< substrate protein remaining %≤ 100%) | B (80%< substrate protein remaining %≤ 100%) | B (80%< substrate protein remaining %≤ 100%) | B (80%< substrate protein remaining %≤ 100%) | A (0% ≤ substrate protein remaining % ≤ 80%) | A (0% ≤ substrate protein remaining % ≤ 80%) | 500 to 1000 | 100 to 500 | 10 to 50 | 5 to 10 | 100 to 500 | 1 to 5 | 10 to 50 | 5 to 10 | 100 to 500 | 5 to 10 | 100 to 500 | 100 to 500 |  | 
O=C1CCC(N2Cc3cc(CN4CCC(c5noc6cc(F)ccc56)CC4)ccc3C2=O)C(=O)N1 (stereo not shown) [GT-04254, 3-(5-((4-(6-fluorobenzo[d]isoxazol-3-yl)piperidin-1-yl)methyl)-1-oxoisoindolin-2-yl)piperidine-2,6-dione] | A (0% ≤ substrate protein remaining % ≤ 80%) | A (0% ≤ substrate protein remaining % ≤ 80%) | A (0% ≤ substrate protein remaining % ≤ 80%) | A (0% ≤ substrate protein remaining % ≤ 80%) | A (0% ≤ substrate protein remaining % ≤ 80%) | A (0% ≤ substrate protein remaining % ≤ 80%) |  |  | 10 to 50 |  | 10 to 50 | 10 to 50 | 10 to 50 |  | 100 to 500 | 5 to 10 |  |  | 500 to 1000 | 100 to 500
O=C1CCC(N2Cc3cc(CN4CCC(c5ccccc5Cl)CC4)ccc3C2=O)C(=O)N1 (stereo not shown) [GT-04468, 3-(5-((4-(2-chlorophenyl)piperidin-1-yl)methyl)-1-oxoisoindolin-2-yl)piperidine-2,6-dione] | A (0% ≤ substrate protein remaining % ≤ 80%) | A (0% ≤ substrate protein remaining % ≤ 80%) | A (0% ≤ substrate protein remaining % ≤ 80%) | A (0% ≤ substrate protein remaining % ≤ 80%) | A (0% ≤ substrate protein remaining % ≤ 80%) | A (0% ≤ substrate protein remaining % ≤ 80%) |  | 500 to 1000 | 50 to 100 | 10 to 50 | 100 to 500 | 5 to 10 | 10 to 50 | 5 to 10 | 500 to 1000 | 5 to 10 | 100 to 500 |  | 500 to 1000 | 
O=C1CCC(N2Cc3cc(CN4CCC(c5ccccc5F)CC4)ccc3C2=O)C(=O)N1 (stereo not shown) [GT-04470, 3-(5-((4-(2-fluorophenyl)piperidin-1-yl)methyl)-1-oxoisoindolin-2-yl)piperidine-2,6-dione] | A (0% ≤ substrate protein remaining % ≤ 80%) | A (0% ≤ substrate protein remaining % ≤ 80%) | A (0% ≤ substrate protein remaining % ≤ 80%) | A (0% ≤ substrate protein remaining % ≤ 80%) | A (0% ≤ substrate protein remaining % ≤ 80%) | A (0% ≤ substrate protein remaining % ≤ 80%) |  | 500 to 1000 | 50 to 100 | 10 to 50 | 100 to 500 | 5 to 10 | 10 to 50 | 10 to 50 | 100 to 500 | 10 to 50 | 500 to 1000 |  | 500 to 1000 | 
O=C1CCC(N2Cc3cc(CN4CCC(c5cccc(C(F)(F)F)c5)CC4)ccc3C2=O)C(=O)N1 (stereo not shown) [GT-04472, 3-(1-oxo-5-((4-(3-(trifluoromethyl)phenyl)piperidin-1-yl)methyl)isoindolin-2-yl)piperidine-2,6-dione] | A (0% ≤ substrate protein remaining % ≤ 80%) | A (0% ≤ substrate protein remaining % ≤ 80%) | A (0% ≤ substrate protein remaining % ≤ 80%) | A (0% ≤ substrate protein remaining % ≤ 80%) | B (80%< substrate protein remaining %≤ 100%) | A (0% ≤ substrate protein remaining % ≤ 80%) |  | 50 to 100 | 10 to 50 | 1 to 5 | 10 to 50 | 1 to 5 | 5 to 10 | 1 to 5 | 50 to 100 | 1 to 5 | 10 to 50 |  | 500 to 1000 | 
Cc1ccsc1C1=CCN(Cc2ccc3c(c2)CN(C2CCC(=O)NC2=O)C3=O)CC1 (stereo not shown) [GT-04495, 3-(5-((4-(3-methylthiophen-2-yl)-3,6-dihydropyridin-1(2H)-yl)methyl)-1-oxoisoindolin-2-yl)piperidine-2,6-dione] | B (80%< substrate protein remaining %≤ 100%) | B (80%< substrate protein remaining %≤ 100%) | A (0% ≤ substrate protein remaining % ≤ 80%) | B (80%< substrate protein remaining %≤ 100%) | A (0% ≤ substrate protein remaining % ≤ 80%) | A (0% ≤ substrate protein remaining % ≤ 80%) |  | 1 to 5 | 1 to 5 |  | 1 to 5 | < 1 | < 1 | < 1 | 10 to 50 | < 1 | 1 to 5 | 1 to 5 | < 500 | 
